Read-outs that look alike come from different tables or passages of the source.
Experiments:
[1] = Plasma Stability Assay of Example A3, mouse plasma; settings: % of prodrug compound remaining, 37° C.
[2] = Plasma Stability Assay of Example A3, human plasma; settings: % of prodrug compound remaining, 37° C.
[3] = 5 µM
Procedure: 50 uL aliquots of positive controls and test compounds spiked into rat or human plasma (n=2) were added to a pre-warmed plate (37° C.) and shaken at 50 rpm. At each respective time point, the reaction was stopped by adding 500 μL of acetonitrile containing internal standards (100 nM aprozolam, 200 nM caffeine, 100 nM tolbutamide). All samples were vortexed for 10 minutes, followed by centrifugation at 3,220 g for 30 minutes to precipitate proteins. 100 μL of the supernatant is transferred to a new plate. The supernatant will be diluted with ultrapure water according to the LC-MS signal response and peak shape.

[4] = 5 µM; remark: listed apart in the source

For `COc1ccc([C@@]23CCC(OC(=O)C(c4ccccc4)c4ccccc4)=C[C@@H]2N(C)CC3)cc1OC` [Compound 306, [(3aS,7aS)-3a-(3,4-dimethoxyphenyl)-1-methyl-3,4,5,7a-tetrahydro-2H-indol-6-yl] 2,2-diphenylacetate], the “Mouse Plasma Prodrug (%)” value ([1]; 0.0 min) was 100.0%, the “Mouse Plasma Prodrug (%)” value ([1]; 15 min) was 6.2% and the “Mouse Plasma Prodrug (%)” value ([1]; 60 min) was 1.6%. The “Mouse Plasma Prodrug (%)” value ([1]; 120 min) was 0.4%, the “Mouse Plasma Prodrug (%)” value ([1]; 240 min) was 0.1% and the “Human Plasma Prodrug (%)” value ([2]; 0.0 min) was 100.0%.
With `COc1ccc([C@@]23CCC(OC(=O)c4cccc(N(C)C)c4)=C[C@@H]2N(C)CC3)cc1OC` [Compound 307, [(3aS,7aS)-3a-(3,4-dimethoxyphenyl)-1-methyl-3,4,5,7a-tetrahydro-2H-indol-6-yl] 3-(dimethylamino)benzoate] the “Mouse Plasma Prodrug (%)” value ([1]; 0.0 min) was 100.0%, the “Mouse Plasma Prodrug (%)” value ([1]; 30 min) was 3.8% and the “Mouse Plasma Prodrug (%)” value ([1]; 60 min) was 0.1%. For the same molecule, the “Mouse Plasma Prodrug (%)” value ([1]; 120 min) was 0.0%, the “Mouse Plasma Prodrug (%)” value ([1]; 240 min) was 0.0% and the “Human Plasma Prodrug (%)” value ([2]; 0.0 min) was 100.0%. For the same molecule, the “Human Plasma Prodrug (%)” value ([2]; 60 min) was 83.0%.
For `COc1ccc([C@@]23CCC(OC(=O)C(C)(C)C)=C[C@@H]2N(C)CC3)cc1OC` [Compound 309, [(3aS,7aS)-3a-(3,4-dimethoxyphenyl)-1-methyl-3,4,5,7a-tetrahydro-2H-indol-6-yl] 2,2-dimethylpropanoate], the “Mouse Plasma Prodrug (%)” value ([1]; 0.0 min) was 100.0%, the “Mouse Plasma Prodrug (%)” value ([1]; 60 min) was 8.2% and the “Mouse Plasma Prodrug (%)” value ([1]; 120 min) was 0.0%. The “Mouse Plasma Prodrug (%)” value ([1]; 240 min) was 0.0%, the “Human Plasma Prodrug (%)” value ([2]; 0.0 min) was 100.0% and the “Human Plasma Prodrug (%)” value ([2]; 120 min) was 3.6%. The “Human Plasma Prodrug (%)” value ([2]; 240 min) was 2.0%.
With `COc1ccc([C@@]23CCC(OC(=O)C4CC4)=C[C@@H]2N(C)CC3)cc1OC` [Compound 312, [(3aS,7aS)-3a-(3,4-dimethoxyphenyl)-1-methyl-3,4,5,7a-tetrahydro-2H-indol-6-yl] cyclopropanecarboxylate] the “Mouse Plasma Prodrug (%)” value ([1]; 0.0 min) was 100.0%, the “Mouse Plasma Prodrug (%)” value ([1]; 15 min) was 3.5% and the “Mouse Plasma Prodrug (%)” value ([1]; 30 min) was 1.6%. The “Mouse Plasma Prodrug (%)” value ([1]; 60 min) was 2.2%, the “Mouse Plasma Prodrug (%)” value ([1]; 120 min) was 2.8% and the “Mouse Plasma Prodrug (%)” value ([1]; 240 min) was 0.8%. For the same molecule, the “Human Plasma Prodrug (%)” value ([2]; 0.0 min) was 100.0%, the “Human Plasma Prodrug (%)” value ([2]; 15 min) was 8.1% and the “Human Plasma Prodrug (%)” value ([2]; 30 min) was 6.2%.
With `C/C=C(\C)C(=O)OC1=C[C@@H]2N(C)CC[C@]2(c2ccc(OC)c(OC)c2)CC1` [Compound 313, [(3aS,7aS)-3a-(3,4-dimethoxyphenyl)-1-methyl-3,4,5,7a-tetrahydro-2H-indol-6-yl](E)-2-methylbut-2-enoate] the “Mouse Plasma Prodrug (%)” value ([1]; 0.0 min) was 100.0%, the “Mouse Plasma Prodrug (%)” value ([1]; 15 min) was 2.1% and the “Mouse Plasma Prodrug (%)” value ([1]; 30 min) was 0.7%. For the same molecule, the “Mouse Plasma Prodrug (%)” value ([1]; 60 min) was 0.1%, the “Mouse Plasma Prodrug (%)” value ([1]; 120 min) was 0.0% and the “Mouse Plasma Prodrug (%)” value ([1]; 240 min) was 0.0%. The “Human Plasma Prodrug (%)” value ([2]; 0.0 min) was 100.0%, the “Human Plasma Prodrug (%)” value ([2]; 120 min) was 2.4% and the “Human Plasma Prodrug (%)” value ([2]; 240 min) was 0.4%.
For `C=C(C)C(=O)OC1=C[C@@H]2N(C)CC[C@]2(c2ccc(OC)c(OC)c2)CC1` [Compound 315, [(3aS,7aS)-3a-(3,4-dimethoxyphenyl)-1-methyl-3,4,5,7a-tetrahydro-2H-indol-6-yl]-2-methylprop-2-enoate], the “Mouse Plasma Prodrug (%)” value ([1]; 0.0 min) was 100.0%, the “Mouse Plasma Prodrug (%)” value ([1]; 15 min) was 5.3% and the “Mouse Plasma Prodrug (%)” value ([1]; 30 min) was 2.4%. The “Mouse Plasma Prodrug (%)” value ([1]; 60 min) was 1.3%, the “Mouse Plasma Prodrug (%)” value ([1]; 120 min) was 2.0% and the “Mouse Plasma Prodrug (%)” value ([1]; 240 min) was 1.9%. The “Human Plasma Prodrug (%)” value ([2]; 0.0 min) was 100.0%, the “Human Plasma Prodrug (%)” value ([2]; 30 min) was 2.3% and the “Human Plasma Prodrug (%)” value ([2]; 60 min) was 0.5%. For the same molecule, the “Human Plasma Prodrug (%)” value ([2]; 120 min) was 0.2% and the “Human Plasma Prodrug (%)” value ([2]; 240 min) was 0.0%.
In the case of `COc1ccc([C@@]23CCC(OC(=O)c4ccc(F)cc4)=C[C@@H]2N(C)CC3)cc1OC` [Compound 353, (3aS,7aS)-3a-(3,4-dimethoxyphenyl)-1-methyl-2,3,3a,4,5,7a-hexahydro-1H-indol-6-yl 4-fluorobenzoate], the “Mouse Plasma Prodrug (%)” value ([1]; 0.0 min) is reported as 100%, the “Mouse Plasma Prodrug (%)” value ([1]; 15 min) is reported as 0% and the “Mouse Plasma Prodrug (%)” value ([1]; 30 min) is reported as 0%. For the same molecule, the “Mouse Plasma Prodrug (%)” value ([1]; 60 min) was 0%, the “Mouse Plasma Prodrug (%)” value ([1]; 120 min) was 0% and the “Mouse Plasma Prodrug (%)” value ([1]; 240 min) was 0%. For the same molecule, the “Human Plasma Prodrug (%)” value ([2]; 0.0 min) was 100%.
For `COc1ccc([C@@]23CCC(OC(=O)c4ccc(C#N)cc4)=C[C@@H]2N(C)CC3)cc1OC` [Compound 354, (3aS,7aS)-3a-(3,4-dimethoxyphenyl)-1-methyl-2,3,3a,4,5,7a-hexahydro-1H-indol-6-yl 4-cyanobenzoate], the “Mouse Plasma Prodrug (%)” value ([1]; 0.0 min) was 100%, the “Mouse Plasma Prodrug (%)” value ([1]; 15 min) was 5% and the “Mouse Plasma Prodrug (%)” value ([1]; 30 min) was 7%. For the same molecule, the “Mouse Plasma Prodrug (%)” value ([1]; 60 min) was 5%, the “Mouse Plasma Prodrug (%)” value ([1]; 120 min) was 4% and the “Mouse Plasma Prodrug (%)” value ([1]; 240 min) was 0%. For the same molecule, the “Human Plasma Prodrug (%)” value ([2]; 0.0 min) was 100%, the “Human Plasma Prodrug (%)” value ([2]; 15 min) was 93% and the “Human Plasma Prodrug (%)” value ([2]; 30 min) was 72%. For the same molecule, the “Human Plasma Prodrug (%)” value ([2]; 60 min) was 42%, the “Human Plasma Prodrug (%)” value ([2]; 120 min) was 13% and the “Human Plasma Prodrug (%)” value ([2]; 240 min) was 1%.
With `COc1ccc([C@@]23CCC(OC(=O)c4ccc(N(C)C)cc4)=C[C@@H]2N(C)CC3)cc1OC` [Compound 355, [(3aS,7aS)-3a-(3,4-dimethoxyphenyl)-1-methyl-3,4,5,7a-tetrahydro-2H-indol-6-yl] 4-(dimethylamino)benzoate] the “Mouse Plasma Prodrug (%)” value ([1]; 0.0 min) was 100.0%, the “Mouse Plasma Prodrug (%)” value ([1]; 60 min) was 9.9% and the “Mouse Plasma Prodrug (%)” value ([1]; 120 min) was 0.5%. For the same molecule, the “Mouse Plasma Prodrug (%)” value ([1]; 240 min) was 0.0%, the “Human Plasma Prodrug (%)” value ([2]; 0.0 min) was 100.0% and the “Human Plasma Prodrug (%)” value ([2]; 15 min) was greater than 99%. For the same molecule, the “Human Plasma Prodrug (%)” value ([2]; 30 min) was greater than 99%, the “Human Plasma Prodrug (%)” value ([2]; 60 min) was greater than 99% and the “Human Plasma Prodrug (%)” value ([2]; 120 min) was greater than 99%.
For `COc1ccc([C@@]23CCC(OC(=O)c4cccc(C(C)(C)C)c4)=C[C@@H]2N(C)CC3)cc1OC` [Compound 375, (3aS,7aS)-3a-(3,4-dimethoxyphenyl)-1-methyl-2,3,3a,4,5,7a-hexahydro-1H-indol-6-yl 3-(tert-butyl)benzoate], the “Mouse Plasma Prodrug (%)” value ([1]; 0.0 min) was 100%, the “Mouse Plasma Prodrug (%)” value ([1]; 15 min) was 11% and the “Mouse Plasma Prodrug (%)” value ([1]; 30 min) was 2%. The “Mouse Plasma Prodrug (%)” value ([1]; 60 min) was 0%, the “Mouse Plasma Prodrug (%)” value ([1]; 120 min) was 0% and the “Mouse Plasma Prodrug (%)” value ([1]; 240 min) was 0%. The “Human Plasma Prodrug (%)” value ([2]; 0.0 min) was 100%, the “Human Plasma Prodrug (%)” value ([2]; 15 min) was greater than 99% and the “Human Plasma Prodrug (%)” value ([2]; 30 min) was greater than 99%. For the same molecule, the “Human Plasma Prodrug (%)” value ([2]; 60 min) was 97%, the “Human Plasma Prodrug (%)” value ([2]; 120 min) was 57% and the “Human Plasma Prodrug (%)” value ([2]; 240 min) was 26%.
With `COc1ccc([C@@]23CCC(OC(=O)CC(C)(C)C)=C[C@@H]2N(C)CC3)cc1OC` [Compound 431, (3aS,7aS)-3a-(3,4-dimethoxyphenyl)-1-methyl-2,3,3a,4,5,7a-hexahydro-1H-indol-6-yl 3,3-dimethylbutanoate] the “Rat Plasma Prodrug (%)” value ([3]; 0 min) was 100.0%, the “Rat Plasma Prodrug (%)” value ([3]; 10 min) was 74.5% and the “Rat Plasma Prodrug (%)” value ([3]; 30 min) was 45.7%. For the same molecule, the “Rat Plasma Prodrug (%)” value ([3]; 60 min) was 16.5%, the “Rat Plasma Prodrug (%)” value ([3]; 120 min) was 2.3% and the “Rat Plasma Prodrug (%)” value ([3]; 240 min) was 0.2%. The “Human Plasma Prodrug (%)” value ([4]; 0 min) was 100.0%, the “Human Plasma Prodrug (%)” value ([4]; 10 min) was 82.1% and the “Human Plasma Prodrug (%)” value ([4]; 30 min) was 69.0%. The “Human Plasma Prodrug (%)” value ([4]; 60 min) was 62.8%, the “Human Plasma Prodrug (%)” value ([4]; 120 min) was 52.6% and the “Human Plasma Prodrug (%)” value ([4]; 240 min) was 37.4%.

Source: patent US12269800B2, “Delivery of therapeutic alkaloid compounds” (priority 2021, dated 2025)
